# From patent publication US20250032623A1, “HETEROBIFUNCTIONAL COMPOUNDS AND THEIR USE IN TREATING DISEASE” (HALDA THERAPEUTICS OPCO, INC., priority 2021, published 2025)
# Read-outs that look alike come from different tables or passages of the source.
# Tests used:
# HEK293 cells = experiment: Cellular growth inhibition assay (CellTiter-Glo), HEK293 cells; type: cell-based; conditions: three days compound treatment, CellTiter-Glo 2.0, read-out: CTG HEK293 GI50
# Procedure, shortened: (§1)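 GI50 derived by four-parameter regression of luminescence (CellTiter-Glo 2.0) at Day 0 and Day 3, normalized to DMSO wells. Cells (HeLa, HEK293; 500/well, DMEM plus 10% FBS) were dosed with compound dilutions 24 h post-seeding and exposed for three days at 37 °C.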
# KRAS G12C = biological target: T1, KRAS G12C (Homo sapiens, UniProt P01116, G12C); experiment: KRAS G12C nucleotide exchange assay (SOS1 mediated, HTRF); type: biochemical; conditions: 1 hr pre-incubation at RT, read-out: IC50 (inhibition of KRas G12C)
# T1 construct: Kras (aa 2-169), GST; purchased Reaction Biology Corporation (RBC)
# T1 sequence (P01116 2-169 isoform P01116-2 G12C): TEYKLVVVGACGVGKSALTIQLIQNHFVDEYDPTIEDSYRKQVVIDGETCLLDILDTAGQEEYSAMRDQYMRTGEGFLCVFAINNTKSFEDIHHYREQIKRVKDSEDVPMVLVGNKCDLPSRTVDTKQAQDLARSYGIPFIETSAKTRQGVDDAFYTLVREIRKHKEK
# Method: Exemplary compounds were tested for ability to inhibit KRas G12C.
# KRAS target engagement (IC50 determination) was performed using a KRAS G12C nucleotide exchange assay (Reaction Biology Corporation). Specifically, compounds were tested against KRAS G12C in 10-point concentration IC50 mode with 3-fold serial dilution at a starting concentration of 10 μM. ARS1620 was used as a control. Compounds were pre-incubated with protein for 1 hr at RT. Parameters for the assay were:
# In the method, Kras was mixed with a-GST Tb antibody (1.5× solution) and […] was delivered to reaction wells. Compounds were delivered using acoustic dispenser (Echo, Labcyte). Kras/aGST-Tb Ab/compound mixture was incubated for 1 hour at room temperature. A 3× solution of SOS1 and GTP* was prepared in reaction buffer. A […] aliquot of SOS1/GTP* solution was added to reaction well to initiate the exchange reaction. No—SOS1 reaction or max compound concentration was used as blank. IC50 determination was performed using a Sigmoidal dose response (variable slope) equation.
# HeLa cells = experiment: Cellular growth inhibition assay (CellTiter-Glo), HeLa cells; type: cell-based; conditions: three days compound treatment, CellTiter-Glo 2.0, read-out: CTG HELA GI50
# Procedure, shortened: as §1
SMILES,"GI50 (HEK293 cells; Homo sapiens, 72 h) [nM]",IC50 (KRAS G12C) [nM],"GI50 (HeLa cells; Homo sapiens, 72 h) [nM]",GI50 (HEK293 cells) [nM],GI50 (HeLa cells) [nM]
"C=C(F)C(=O)N1CCN(c2nc(OC[C@@H]3CCCN3CCCN3CCN(CCNC(=O)c4ccc(Nc5ncc6c(n5)N(C5CCCC5)[C@H](CC)C(=O)N6C)c(OC)c4)CC3)nc3c2CCN(c2cccc4cccc(Cl)c24)C3)C[C@@H]1CC#N [Compound I-106, N-[2-[4-[3-[(2S)-2-[[7-(8-chloro-1-naphthyl)-4-[(3S)-3-(cyanomethyl)-4-(2-fluoroprop-2-enoyl)piperazin-1-yl]-6,8-dihydro-5H-pyrido[3,4-d]pyrimidin-2-yl]oxymethyl]pyrrolidin-1-yl]propyl]piperazin-1-yl]ethyl]-4-[[(7R)-8-cyclopentyl-7-ethyl-5-methyl-6-oxo-7H-pteridin-2-yl]amino]-3-methoxy-benzamide]",500 to 1500,< 100,500 to 1500,–,–
"C=C(F)C(=O)N1CCN(c2nc(OC[C@@H]3CCCN3CCCOCCOCCn3cc(CNc4cc(N5CCCC[C@H]5CCO)nc5c(CC)cnn45)ccc3=O)nc3c2CCN(c2cccc4cccc(Cl)c24)C3)C[C@@H]1CC#N [Compound I-87, 2-[(2S)-4-[7-(8-chloro-1-naphthyl)-2-[[(2S)-1-[3-[2-[2-[5-[[[3-ethyl-5-[(2S)-2-(2-hydroxyethyl)-1-piperidyl]pyrazolo[1,5-a]pyrimidin-7-yl]amino]methyl]-2-oxo-1-pyridyl]ethoxy]ethoxy]propyl]pyrrolidin-2-yl]methoxy]-6,8-dihydro-5H-pyrido[3,4-d]pyrimidin-4-yl]-1-(2-fluoroprop-2-enoyl)piperazin-2-yl]acetonitrile]",500 to 1500,< 100,500 to 1500,–,–
"CCc1cnn2c(NCc3ccc(OCCOCCOCCOCCOCCOCCOCCN(C)C/C=C/C(=O)N4CCN(c5nc(OC[C@@H]6CCCN6C)nc6c5CCN(c5cccc7cccc(Cl)c57)C6)C[C@@H]4CC#N)nc3)cc(N3CCCC[C@H]3CCO)nc12 [Compound I-94, 2-((S)-4-(7-(8-chloronaphthalen-1-yl)-2-(((S)-1-methylpyrrolidin-2-yl)methoxy) -5,6,7,8-tetrahydropyrido[3,4-d]pyrimidin-4-yl)-1-((E)-1-((5-(((3-ethyl-5-((S)-2-(2-hydroxyethyl)piperidin-1-yl)pyrazolo[1,5-a]pyrimidin-7-yl)amino)methyl)pyridin-2-yl)oxy)-21-methyl-3,6,9,12,15,18-hexaoxa-21-azapentacos-23-en-25-oyl)piperazin-2-yl)acetonitrile]",1500 to 5000,< 100,500 to 1500,–,–
CN(C/C=C/C(=O)N1CCN(c2nc(OC[C@@H]3CCCN3C)nc3c2CCN(c2cccc4cccc(Cl)c24)C3)C[C@@H]1CC#N)CCOCCOCCOCCOCCOCCOCCOCCOCCON(C)C(=O)N1N=C(c2cc(F)ccc2F)SC1(CCCN)c1ccccc1 (stereo partly drawn) [Compound I-80],500 to 1500,< 100,< 500,–,–
"CCc1cnn2c(NCc3ccc(OCCOCCOCCOCCOCCOCCOCCOCCOCCN(C)C/C=C/C(=O)N4CCN(c5nc(OC[C@@H]6CCCN6C)nc6c5CCN(c5cccc7cccc(Cl)c57)C6)C[C@@H]4CC#N)nc3)cc(N3CCCC[C@H]3CCO)nc12 [Compound I-93, 2-((S)-4-(7-(8-chloronaphthalen-1-yl)-2-(((S)-1-methylpyrrolidin-2-yl)methoxy)-5,6,7,8-tetrahydropyrido[3,4d]pyrimidin4-yl)-1-((E)-1-((5-(((3-ethyl-5-((S)-2-(2-hydroxyethyl)piperidin-1-yl)pyrazolo[1,5-a]pyrimidin-7-yl)amino)methyl)pyridin-2-yl)oxy)-27-methyl-3,6,9,12,15,18,21,24-octaoxa-27-azahentriacont-29-en-31-oyl)piperazin-2-yl)acetonitrile]",1500 to 5000,< 100,< 500,–,–
"CC[C@@H]1C(=O)N(C)c2cnc(Nc3ccc(C(=O)NCCOCCOC4CCN(C/C=C/C(=O)N5CCN(c6nc(OC[C@@H]7CCCN7C)nc7c6CCN(c6cccc8cccc(Cl)c68)C7)C[C@@H]5CC#N)CC4)cc3OC)nc2N1C1CCCC1 [Compound I-110, N-[2-[2-[[1-[(E)-4-[(2S)-4-[7-(8-chloro-1-naphthyl)-2-[[(2S)-1-methylpyrrolidin-2-yl]methoxy]-6,8-dihydro-5H-pyrido[3,4-d]pyrimidin-4-yl]-2-(cyanomethyl)piperazin-1-yl]-4-oxo-but-2-enyl]-4-piperidyl]oxy]ethoxy]ethyl]-4-[[(7R)-8-cyclopentyl-7-ethyl-5-methyl-6-oxo-7H-pteridin-2-yl]amino]-3-methoxy-benzamide]",500 to 1500,< 100,500 to 1500,–,–
"C=C(F)C(=O)N1CCN(c2nc(OC[C@@H]3CCCN3CCCOCCOCCOc3ccc(CNc4cc(N5CCCC[C@H]5CCO)nc5c(CC)cnn45)cn3)nc3c2CCN(c2cccc4cccc(Cl)c24)C3)C[C@@H]1CC#N [Compound I-88, 2-[(2S)-4-[7-(8-chloro-1-naphthyl)-2-[[(2S)-1-[3-[2-[2-S[[5-[[[3-ethyl-5-[(2S)-2-(2-hydroxyethyl)-1-piperidyl]pyrazolo[1,5-a]pyrimidin-7-yl]amino]methyl]-2-pyridyl]oxy]ethoxy]ethoxy]propyl]pyrrolidin-2-yl]methoxy]-6,8-dihydro-5H-pyrido[3,4-d]pyrimidin-4-yl]-1-(2-fluoroprop-2-enoyl)piperazin-2-yl]acetonitrile]",500 to 1500,< 100,500 to 1500,–,–
"CC[C@@H]1C(=O)N(C)c2cnc(Nc3ccc(C(=O)NCCOCCOCCOCCOCCOCCOCCN(C)C/C=C/C(=O)N4CCN(c5nc(OC[C@@H]6CCCN6C)nc6c5CCN(c5cccc7cccc(Cl)c57)C6)C[C@@H]4CC#N)cc3OC)nc2N1C1CCCC1 [Compound I-109, N-[2-[2-[2-[2-[2-[2-[2-[[(E)-4-1[(2S)-4-1[7-(8-chloro-1-naphthyl)-2-[[(2S)-1-methylpyrrolidin-2-yl]methoxy]-6,8-dihydro-5Hpyrido1[3,4-d]pyrimidin-4-yl]-2-(cyanomethyl)piperazin-1-yl]-4-oxo-but-2-enyl]-methylamino]ethoxy]ethoxy]ethoxy]ethoxy]ethoxy]ethoxy]ethyl]-4-[[(7R)-8-cyclopentyl-7-ethyl-5-methyl-6-oxo-7H-pteridin-2-yl]amino]-3-methoxy-benzamide]",1500 to 5000,< 100,500 to 1500,–,–
C=C(F)C(=O)N1CCN(c2nc(OC[C@@H]3CCCN3CCCOCCOCCOCCOCCOCCOCCOCCOCCN(C)C(=O)N3N=C(c4cc(F)ccc4F)S[C@@]3(CCCN)c3ccccc3)nc3c2CCN(c2cccc4cccc(Cl)c24)C3)C[C@@H]1CC#N [Compound I-101],–,< 100,–,1500 to 5000,1500 to 5000
"C=C(F)C(=O)N1CCN(c2nc(OC[C@@H]3CCCN3CCCOCCOCCOCCOCCN(C)C(=O)N3N=C(c4cc(F)ccc4F)S[C@@]3(CCCN)c3ccccc3)nc3c2CCN(c2cccc4cccc(Cl)c24)C3)C[C@@H]1CC#N [Compound I-98, 2-(3-aminopropyl)-N-[2-[2-[2-[2-[3-[(2S)-2-[[7-(8-chloro-1-naphthyl)-4-[(3S)-3-(cyanomethyl)-4-(2-fluoroprop-2-enoyl)piperazin-1-yl]-6,8-dihydro-5H-pyrido[3,4-d]pyrimidin-2-yl]oxymethyl]pyrrolidin-1-yl]propoxy]ethoxy]ethoxy]ethoxy]ethyl]-5-(2,5-difluorophenyl)-N-methyl-2-phenyl-1,3,4-thiadiazole-3-carboxamide]",1500 to 5000,< 100,500 to 1500,–,–
"C=C(F)C(=O)N1CCN(c2nc(OC[C@@H]3CCCN3CCCOCCOCCN(C)C(=O)N3N=C(c4cc(F)ccc4F)SC3(CCCN)c3ccccc3)nc3c2CCN(c2cccc4cccc(Cl)c24)C3)C[C@@H]1CC#N (stereo partly drawn) [Compound I-99, 2-(3-aminopropyl)-N-[2-[2-[3-[(2S)-2-[[7-(8-chloro-1-naphthyl)-4-[(3S)-3-(cyanomethyl)-4-(2-fluoroprop-2-enoyl)piperazin-1-yl]-6,8-dihydro-5H-pyrido[3,4-d]pyrimidin-2-yl]oxymethyl]pyrrolidin-1-yl]propoxy]ethoxy]ethyl]-5-(2,5-difluorophenyl)-N-methyl-2-phenyl-1,3,4-thiadiazole-3-carboxamide]",1500 to 5000,< 100,500 to 1500,–,–
CC[C@@H]1C(=O)N(C)c2cnc(Nc3ccc(C(=O)NCCOCCN4CCN(C/C=C/C(=O)N5CCN(c6nc(OC[C@@H]7CCCN7C)nc7c6CCN(c6cccc8cccc(Cl)c68)C7)C[C@@H]5CC#N)CC4)cc3OC)nc2N1C1CCCC1 [Compound I-82],< 500,< 100,< 500,–,–
CN(C/C=C/C(=O)N1CCN(c2nc(OC[C@@H]3CCCN3C)nc3c2CCN(c2cccc4cccc(Cl)c24)C3)C[C@@H]1CC#N)CCOCCOCCOCCOCCOCCOCCON(C)C(=O)N1N=C(c2cc(F)ccc2F)SC1(CCCN)c1ccccc1 (stereo partly drawn) [Compound I-78],500 to 1500,< 100,< 500,–,–
